According to publication PMC6482079 (European journal of pharmaceutical sciences : official …, 2019):

Tests used:
[1] = test system: B/Wisconsin/1/2010 (Yamagata); experiment: Plaque reduction assay in ST6Gal I-overexpressing MDCK cells; type: cell-based, influenza B virus; details: for Drug sensitivity: sensitivity of the strain to the named drug
[2] = test system: B/Bris/60/2008 (Victoria); experiment: as above; type: cell-based, influenza B virus; details: for Drug sensitivity: sensitivity of the strain to the named drug

Row | SMILES | Drug sensitivity [1] | Drug sensitivity [2] | SI (selectivity index) ([1]; CC50/EC50) | EC50 ([1]; Influenza B virus, MDCK) [nM] | SI (selectivity index) ([2]; CC50/EC50) | EC50 ([2]; Influenza B virus, MDCK) [nM]
1 | CCC(CC)O[C@@H]1C=C(C(=O)O)C[C@H](N)[C@H]1NC(C)=O [Oseltamivir carboxylate] | Sensitive | Sensitive | – | – | – | –
2 | NC12CC3CC(CC(C3)C1)C2 [Amantadine, amantadine] | Resistant | Resistant | – | – | – | –
3 | Cc1cc(OCc2nnc(SC3CCCC3)n2-c2cccnc2)ccc1-c1ccc(S(C)(=O)=O)cc1 [NMS-873] | – | – | 78 | 35 ± 5 | 97 | 28 ± 8
